# Values of other authors in patent publication US9642862B2, “Methods for treating chronic or unresolvable pain and/or increasing the pain threshold in a subject and pharmaceutical compositions for use therein” (White Mountain Pharma, Inc., priority 2010, dated 2017).
# Assays:
# chronic pain subjects = settings: four subjects, adjunctive to primary opioid therapy, anecdotal
# rats = settings: formalin test, treatment with testosterone
# [1] = system: female-to-male transsexuals; settings: doses at or above the male reference range
# [2] = system: ovariectomized female rats
Compound,quality of life (chronic pain subjects),pain responses (rats),side effects [1],spinal cord enkephalin transcription [2]
C[C@]12CC[C@H]3[C@@H](CCC4=CC(=O)CC[C@@]43C)[C@@H]1CC[C@@H]2O [testosterone],improved,decreased,develop hirsutism and male-like increased risk for cardiovascular disease and diabetes,
estrogen,,,,increase
